Results from patent US9624167B2, “N-(4-hydroxy-4-methyl-cyclohexyl)-4-phenyl-benzenesulfonamides and N-(4-hydroxy-4-methyl-cyclohexyl)-4-(2-pyridyl)benzenesulfonamides and their therapeutic use” (PIMCO 2664 LIMITED, priority 2013, dated 2017).
≈ marks a conversion by molar mass, not a printed value. Where two headings read alike, the source gives them in different places.

Tests used:
[1] = test system: IL-6 release from LPS-stimulated Thp1 macrophages; assay: Thp1 Macrophage IL-6 Release Assay; assay type: cell-based; conditions: Homo sapiens
Excerpt: Anti-inflammatory effects were further characterised by assessing the production of interleukin-6 (IL-6) by human Thp-1 derived macrophages stimulated with a pro-inflammatory stimulus bacterial lipopolysaccharide (LPS). LPS acts with a cell-surface receptor, Toll-like receptor-4 to activate the NFκB and IRF signalling pathways to produce IL-6. The reduction of IL—in this stimulated assay is indicative of anti-inflammatory effects with utility in the treatment of conditions in which IL-6 production is aberrant.
In vitro potency of test compounds in human cells was determined by incubation with Thp1 macrophages and subsequent stimulation with an inflammatory stimulus (bacterial lipopolysaccharide (LPS)) followed by measurement of cellular interleukin-6 (IL-6) release.
Thp1 cells were plated at a concentration of 1×10^5 cells/well or 1.7×10^5 cells/well in 500 μL or 150 μL RPMI complete media containing 1% penicillin-streptomycin and 10% heat inactivated foetal bovine serum in 24-well plates or 96-well plates, respectively and allowed to adhere overnight. The following day, the cells were stimulated with phorbol myristic acid (PMA) at a final concentration of 100 nM (24-well plates) or 200 nM (96-well plates) to induce differentiation and maintained for up to 8 days with a medium change at 5 days if cells were cultured to 8 days. Test compounds were prepared as […] solutions in DMSO and then serially diluted in DMSO prior to dilution in culture medium.
The diluted compounds were added to the cultures 1 hour prior to stimulation with 100 ng/mL LPS. Following a 16 or 18 hour incubation at 37° C./5% CO2, the cell culture medium was collected and assayed for human IL-6 levels using the human IL-6 duo-set ELISA kit (R&D Systems). The average results for each test compound (n=3) were expressed as a percent (%) of the average control value. The average values across the concentrations tested were then plotted and the IC50 for the inhibition of IL-6 was calculated by fitting the data to a 4-parameter IC50 equation using software from Grafit version 6.0.12 (Erithacus Software Ltd., by Dr Robin Leatherbarrow) or GraphPad Prism version 5.04 for Windows (GraphPad Software, La Jolla, Calif., USA, www.qraphpad.com). Each experiment was repeated twice and the data are presented as the mean IC50 from both experiments.

[2] = Aqueous (FaSSIF) solubility; assay type: physicochemical; conditions: fasted state simulated intestinal fluid (FaSSIF); for solubility: pH 6.8, two replicates, read-out: Solubility (2); for solubility at 16 h: kinetic from dmso stock, pH 6.5, three replicates, read-out: Solubility (1)
Procedure: Solubility was measured by equilibration of the compound in fasted state simulated intestinal fluid (FaSSIF) and quantified by high-performance liquid chromatography (HPLC).
Aqueous solubility was measured by equilibration of compounds with fasted state simulated intestinal fluid (FaSSIF) and quantified spectrophotometrically.
FaSSIF was prepared as described below:
Preparation of blank FaSSIF: 0.21 g of sodium hydroxide (NaOH) pellets, 1.97 g of dihydrogen sodium phosphate (NaH2PO4.2H2O) and 3.09 g of sodium chloride (NaCl) were dissolved in 400 mL of deionised water. […]
Preparation of FaSSIF: 0.056 g of SIF Powder (containing sodium taurocholate and lecithin) (Phares AG) was dissolved in 25 mL of blank FaSSIF and stirred until the powder was completely dissolved. The solution was allowed to stand for 2 hours during which it became opalescent; it was used within 24 hours. The final solution composition was characterised as follows: • Sodium taurocholate: 3 mM • Lecithin: 0.75 mM • Osmolarity: 270±10 mOsmol • pH: 6.5
The optical density was measured at the end of the incubation period for test compounds and a reference used to determine solubility. In brief, two samples were prepared for each determination: a reference sample consisting of a stock solution of test compound in DMSO diluted in system solution (a phosphate free, low absorption buffer) and propanol; and a test sample (prepared in triplicate) consisting of 0.5 mL FaSSIF spiked with test compound at 0.2 mM. Each sample was incubated at room temperature for 16 hours with constant shaking at 250 rpm. At the end of the incubation period, 0.3 mL of each sample was filtered through a pION filter plate (PION, Woburn Mass.), diluted 1:1 with propanol and scanned using UV spectrophotometry at λmax ([…]) using a Spectra Max Plus—Version 2.1000 (Molecular Devices, Sunnyvale, Calif.), with μSOL Explorer solubility determination software (pION, Woburn, Mass.).
FaSSIF solubility was calculated using the following formula:
[formula] wherein: • “OD” is the optical density; • “Cr” is the concentration of the reference (33.4 μM); and • “molecular weight” is for the test compound (e.g., 381.44 for ABD735).

[3] = Rodent pharmacokinetics study; assay type: in vivo, Sprague-Dawley rats; conditions: rat; for half-life: male, Sprague-Dawley, plasma, elimination phase half-life; for p.o. AUC: oral 5 mg/kg in 0.5% CMC/0.1% Tween-80 (HMC-C-01-A in 2% dimethylacetamide/20% hydroxypropyl-β-cyclodextrin); for Bioavail, F: tentative oral bioavailability, F=AUC(p.o.)×Dose(i.v.)/AUC(i.v.)×Dose(p.o.); for i.v. AUC: intravenous 1 mg/kg
Procedure: Absorption and metabolic stability were studied using an in vivo pharmacokinetics assay.
Three male Sprague-Dawley rats, aged 8-12 weeks, were dosed with test compounds administered either orally or intravenously (dose level of 1 mg/kg body weight intravenous or 5 mg/kg body weight orally). Test compounds were formulated in 0.5% carboxymethylcellulose (CMC)/0.1% Tween-80 for administration via the oral route, or in 5% DMSO/10% solutol in saline for administration via the intravenous route. For compound HMC-C-01-A the oral administration was formulated in 2% dimethylacetamide/20% hydroxypropyl-β-cyclodextrin in water. Animals were given free access to food throughout the study except for fasting overnight and until 2 hours post dose on the day of dosing.
Blood samples were taken from the retro-orbital plexus at the following time points and placed in microtubes containing 20% K2EDTA solution:
Oral Dosing: predose; 0.25, 0.5, 1, 2, 4, 6, 8, and 24 hours post dose.
Intravenous Dosing: predose; 0.08, 0.25, 0.5, 1, 2, 4, 8, and 24 hours post dose.
Blood samples were centrifuged to obtain plasma, which was transferred to a separate container and frozen at −20° C.
For analysis, samples were thawed at room temperature and prepared by protein precipitation with acetonitrile spiked with internal standard (500 ng/mL glipizide) in the ratio 1:4 with plasma. The samples were then vortexed for 5 minutes and centrifuged for 10 minutes at 20,600×g at 4° C. 100 μL of the supernatant was collected for analysis. The standard samples were prepared similarly, after spiking blank rat plasma samples with 10 μL of analyte.
The pharmacokinetic parameters for the test compounds were calculated by Phoenix WinNonlin version 6.3 (Pharsight Corp, CA) using standard non-compartmental methods. Peak plasma concentrations (Cmax) and time of the peak plasma concentration (Tmax) were the observed values. The area under the plasma concentration-time curve (AUC) was determined by use of the linear trapezoidal rule up to the last measurable concentration (AUClast) and thereafter by extrapolation of the terminal elimination phase to infinity (AUCinf). The terminal elimination rate constant (kel) was determined by regression analysis of the linear terminal portion of the log plasma concentration-time curve. The elimination phase half-life (t1/2) was calculated as 0.693/kel.

[4] = THP-1, 1.7 × 10^5 cells/well, 96-well plates, 3 days, 9 point curve, IL6 measured 18 hours after LPS, read-out: IC50 (2)
[5] = THP-1, 1 × 10^5 cells/well, 24-well plates, 8 days, 6 point curve, IL6 measured 16 hours after LPS, read-out: IC50 (1)

Row | Structure (SMILES) | IC50 [1, 4] [µM] | solubility [2] [µg/mL] | half-life [3] [h] | p.o. AUC [3] [ng·h/mL] | Bioavail, F [3] [%] | IC50 [1, 5] [µM] | solubility at 16 h [2] [µg/mL] | i.v. AUC [3] [ng·min/mL]
1 | C[C@]1(O)CC[C@@H](NS(=O)(=O)c2ccc(-c3ccc(F)cc3C(F)(F)F)cc2)CC1 [HMC-C-02-B, 4′-Fluoro-N-((1s,4s)-4-hydroxy-4-methylcyclohexyl)-2′-(trifluoromethyl)-[1,1′-biphenyl]-4-sulfonamide] | 0.29 | 70 (≈ 162 µM) | – | – | – | – | – | –
2 | C[C@]1(O)CC[C@@H](NS(=O)(=O)c2ccc(-c3ccc(F)cc3F)c(F)c2)CC1 [HMC-C-04-B, 2,2′,4′-Trifluoro-N-((1s,4s)-4-hydroxy-4-methylcyclohexyl)-[1,1′-biphenyl]-4-sulfonamide] | 0.03 | 130 (≈ 325 µM) | 5.5 | 156 | 59 | – | – | –
3 | C[C@]1(O)CC[C@H](NS(=O)(=O)c2ccc(-c3ccc(F)cc3F)c(F)c2)CC1 [HMC-C-04-A, 2,2′,4′-Trifluoro-N-((1r,4r)-4-hydroxy-4-methylcyclohexyl)-[1,1′-biphenyl]-4-sulfonamide] | 0.13 | 80 (≈ 200 µM) | – | – | – | – | – | –
4 | C[C@]1(O)CC[C@H](NS(=O)(=O)c2ccc(-c3ncc(Cl)cc3Cl)cc2)CC1 [HMC-N-03-A, 4-(3,5-Dichloropyridin-2-yl)-N-((1r,4r)-4-hydroxy-4-methylcyclohexyl)benzenesulfonamide] | – | – | 3.1 | 16 | 8 | 0.05 | > 80 | –
5 | C[C@]1(O)CC[C@H](NS(=O)(=O)c2ccc(-c3ccc(F)cc3C(F)(F)F)cc2)CC1 [HMC-C-02-A, 4′-Fluoro-N-((1r,4r)-4-hydroxy-4-methylcyclohexyl)-2′-(trifluoromethyl)biphenyl-4-sulfonamide] | 0.97 | – | 3.2 | 17.8 | 39 | 0.001 | 40 (≈ 92.7 µM) | 546
6 | Cc1cc(S(=O)(=O)N[C@H]2CC[C@H](O)CC2)ccc1-c1ccc(F)cc1F [ABD735] | – | – | 3.8 | – | 83 | – | 20 (≈ 52.4 µM) | 1081
7 | O=S(=O)(N[C@H]1CC[C@H](O)CC1)c1ccc(-c2ncc(Cl)cc2Cl)cc1 [ABD836, reference compound] | – | – | 5.3 | 98.8 | 55 | – | 30 (≈ 74.8 µM) | 2142
8 | C[C@]1(O)CC[C@H](NS(=O)(=O)c2ccc(-c3ccc(Cl)cc3C#N)cc2)CC1 [HMC-C-01-A, 4′-Chloro-2′-cyano-N-((1r,4r)-4-hydroxy-4-methylcyclohexyl)biphenyl-4-sulfonamide] | 0.18 | – | 6.2 | 66.7 | 89 | 0.04 | 60 (≈ 148 µM) | 900
9 | C[C@]1(O)CC[C@@H](NS(=O)(=O)c2ccc(-c3ncc(Cl)cc3Cl)cc2)CC1 [HMC-N-03-B, 4-(3,5-Dichloropyridin-2-yl)-N-((1s,4s)-4-hydroxy-4-methylcyclohexyl)benzenesulfonamide] | 0.02 | 100 (≈ 241 µM) | 7.4 | 193 | 84 | – | – | –
10 | C[C@]1(O)CC[C@@H](NS(=O)(=O)c2ccc(-c3ncc(F)cc3F)cc2)CC1 [HMC-N-02-B, 4-(3,5-Difluoropyridin-2-yl)-N-((1s,4s)-4-hydroxy-4-methylcyclohexyl)benzenesulfonamide] | 0.02 | 120 (≈ 314 µM) | 6 | 107 | 66 | – | – | 1931
11 | C[C@]1(O)CC[C@H](NS(=O)(=O)c2ccc(-c3c(F)cc(F)cc3F)cc2)CC1 [HMC-C-03-A, 2′,4′,6′-Trifluoro-N-((1r,4r)-4-hydroxy-4-methylcyclohexyl)biphenyl-4-sulfonamide] | 0.05 | – | 2.4 | 65.2 | 55 | 0.004 | 30 (≈ 75.1 µM) | 1427
12 | C[C@]1(O)CC[C@H](NS(=O)(=O)c2ccc(-c3ncc(Cl)cc3Cl)c(F)c2)CC1 [HMC-N-04-A, 4-(3,5-Dichloropyridin-2-yl)-3-fluoro-N-((1r,4r)-4-hydroxy-4-methylcyclohexyl)benzenesulfonamide] | – | – | 2.9 | 70 | 66 | – | 60 (≈ 138 µM) | 1279
13 | C[C@]1(O)CC[C@@H](NS(=O)(=O)c2ccc(-c3ccc(F)cc3F)cc2)CC1 [ABD899, reference compound] | – | 130 (≈ 341 µM) | 10.8 | – | 50 | – | 60 (≈ 157 µM) | 2133
14 | Cc1cc(S(=O)(=O)NC2CCC(C)(O)CC2)ccc1-c1ccc(F)cc1F (single isomer, unassigned) [REF001, reference compound] | – | – | 7.2 | – | 50 | – | 50 (≈ 126 µM) | 963
15 | C[C@]1(O)CC[C@H](NS(=O)(=O)c2ccc(-c3ccc(F)cc3F)cc2)CC1 [ABD900, reference compound] | – | 120 (≈ 315 µM) | – | – | – | – | – | –
